According to patent EP1175402B1, “PIPERIDINE DERIVATIVES USEFUL AS CCR5 ANTAGONISTS” (SCHERING CORPORATION, priority 1999, dated 2000):

What follows are molecules tested against T1, human CCR5 chemokine receptor (Homo sapiens, UniProt P51681) (assay: CCR5 membrane binding assay (inhibition of 125I-RANTES binding)). Conditions: membranes from NIH 3T3 cells expressing the human CCR5 chemokine receptor, one hour incubation.
T1 construct: expressed in transfected cells; host or cells: NIH 3T3 cells (murine), membranes
T1 sequence (P51681 whole entry): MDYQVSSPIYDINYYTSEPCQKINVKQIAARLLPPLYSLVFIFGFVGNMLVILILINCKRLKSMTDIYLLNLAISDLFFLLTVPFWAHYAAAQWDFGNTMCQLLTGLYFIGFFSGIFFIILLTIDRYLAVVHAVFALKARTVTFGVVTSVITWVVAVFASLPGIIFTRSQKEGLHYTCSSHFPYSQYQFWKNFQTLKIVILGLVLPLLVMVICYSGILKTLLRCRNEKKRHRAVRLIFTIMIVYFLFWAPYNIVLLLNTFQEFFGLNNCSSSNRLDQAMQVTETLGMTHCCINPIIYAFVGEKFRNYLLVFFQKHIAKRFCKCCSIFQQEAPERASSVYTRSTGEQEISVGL
Description: CCR5 Membrane Binding Assay:
A high throughput screen utilizing a CCR5 membrane binding assay identifies inhibitors of RANTES binding. This assay utilizes membranes prepared from NIH 3T3 cells expressing the human CCR5 chemokine receptor which have the ability to bind to RANTES, a natural ligand for the receptor. Using a 96-well plate format, membrane preparations are incubated with ^125I-RANTES in the presence or absence of compound for one hour. Compounds are serially diluted over a wide range of 0.001 ug/ml to 1 ug/ml and tested in triplicates. Reaction cocktails are harvested through glass fiber filters, and washed thoroughly. Total counts for replicates are averaged and data reported as the concentration required to inhibit 50 percent of total ^125I-RANTES binding.

Row | Compound | Ki [nM]
1 | Cc1ncnc(C)c1C(=O)N1CCC(C)(N2CCC(C(Oc3ccccn3)c3ccc(Br)cc3)CC2)CC1 (single isomer, unassigned) [Example 4C] | 0.5
2 | CCC(=O)OC(c1ccc(Br)cc1)C1CCN(C2(C)CCN(C(=O)c3c(C)cccc3C)CC2)CC1 (stereo not shown) [Example 1B] | 14
3 | Cc1ccnc(C)c1C(=O)N1CCC(C)(N2CCC(C(Oc3ccccn3)c3ccc(S(C)(=O)=O)cc3)CC2)CC1 (stereo not shown) [Example 2] | 9.6
4 | CO/N=C(/c1ccc(OC(F)(F)F)cc1)C1CCN(C2(C)CCN(C(=O)c3c(C)cccc3C)CC2)CC1 [Example 7U] | 62.5
